Literature values as cited in patent US10039772B2, “Methods and compositions for treating alcohol use disorders” (priority 2015, dated 2018).

System: 11β-HSD1, 11β-HSD2
Settings: 11β-HSD isozyme specificity per cited reference; cited from earlier work

Structure (SMILES) | Specificity
Cc1c(Cl)cccc1S(=O)(=O)Nc1nc(CC(=O)N2CCN(C)CC2)cs1 [Number 5] | 11β- HSD1 > 2
CCN(CC)C(=O)Cc1csc(NS(=O)(=O)c2cccc(Cl)c2C)n1 [Number 6] | 11β- HSD1 > 2
Cc1c(Cl)cccc1S(=O)(=O)Nc1nc(CCN2CCOCC2=O)cs1 [Number 7, 3-chloro-2-methyl-N-{4-[2-(3-oxo-4-morpholinyl)ethyl]-1,3-thiazol-2-yl}benzenesulfonamide] | 11β- HSD1 > 2
COc1cc(C(=O)N2CCC(n3c(=O)[nH]c4ccccc43)CC2)ccc1C [Number 8] | 11β- HSD1 > 2
CCC1(CC)OC(N[C@@H](C)c2ccccc2C(F)(F)F)=NC1=O [Number 9] | 11β- HSD1 > 2
C[C@H](NC1=NC(=O)[C@@](C)(C(C)(C)O)S1)c1ccc(F)cc1 [Number 10] | 11β- HSD1 > 2
C[C@H](NC1=NC(=O)[C@@](C)(C(F)(F)F)S1)c1ccccc1F [Number 11] | 11β- HSD1 > 2
CCN(C(=O)c1ccc([C@@](C)(O)C(F)(F)F)cc1)C1CCCCC1 [Number 16] | 11β- HSD1 > 2
CC(C)N(c1ccc([C@](C)(O)C(F)(F)F)cc1)S(=O)(=O)c1cc(Cl)ccc1Cl [Number 20] | 11β- HSD1 > 2
Cn1c(-c2ccccc2)nnc1C12CC3CC(CC(C3)C1)C2 [Number 23] | 11β- HSD1 > 2
COc1c(-c2nnc(-c3ccccc3C(F)(F)F)n2C)ccc2ccc(Cl)cc12 [Number 24] | 11β- HSD1 > 2
F[C@H]1C[C@](c2ccc(Cl)cc2)(c2nnc(C3CC3)n2C2CC2)C1 [Number 25] | 11β- HSD1 > 2
Cn1c(-c2ccc(-c3cccc(S(C)(=O)=O)c3)cc2Cl)nnc1C1(c2ccc(Cl)cc2)CCC1 [Number 26] | 11β- HSD1 > 2
Cn1c(-c2ccc(-c3cnccn3)cc2Cl)nnc1[C@]1(c2ccc(Cl)cc2)C[C@@H](F)C1 [Number 27] | 11β- HSD1 > 2
CCCCCC12CCC(c3nnc(-c4ccccc4C(F)(F)F)n3C)(CC1)CC2 [Number 28] | 11β- HSD1 > 2
CCS(=O)(=O)CCCC12CCC(c3nnc(-c4ccccc4C(F)(F)F)n3C)(CC1)CC2 [Number 29] | 11β- HSD1 > 2
CC(C)(C)c1ccc(S(=O)(=O)N2C[C@H]3C[C@@H]2CN3C2CCCC2)cc1 [Number 30] | 11β- HSD1 > 2
Cn1c(-c2ccccc2C(F)(F)F)nnc1C12CCC(c3nc(-c4ccc(C(O)C(F)(F)F)cc4)no3)(CC1)CC2 (stereo not drawn) [Number 31] | 11β- HSD1 > 2
Cn1c(-c2ccccc2C(F)(F)F)nnc1C12CCC(c3nc(-c4ccc(F)cc4)no3)(CC1)CC2 [Number 33] | 11β- HSD1 > 2
CCN(CC)C(=O)Cc1cccc(NS(=O)(=O)c2cccc(Cl)c2C)n1 [Number 34] | 11β- HSD1 > 2
Cc1cc(N)nc(NS(=O)(=O)c2ccc(-c3ccc(C#N)cc3)cc2)c1 [Number 36] | 11β- HSD1 > 2

Structure (SMILES) | Specificity
N#Cc1ccc(-c2ccc(S(=O)(=O)Nc3cccc(CO)n3)cc2)cc1 [Number 39] | 11β- HSD1 > 2
O=C(CS(=O)(=O)c1ccccc1)c1ccc(C(F)(F)F)cc1 [Number 40] | 11β- HSD1 > 2
O=S(=O)(c1ccc(Cl)c(Cl)c1)N1CCN(c2ncccc2C(F)(F)F)CC1 [Number 41] | 11β- HSD1 > 2
C[C@@H]1CN(c2ncc(F)cc2C(F)(F)F)CCN1S(=O)(=O)c1cccc(-n2cncn2)c1 [Number 42] | 11β- HSD1 > 2
C[C@@H]1CN(c2ccc(F)cc2C(F)(F)F)CCN1S(=O)(=O)c1cccc([C@@](C)(O)C(F)(F)F)c1 [Number 43] | 11β- HSD1 > 2
C[C@@H]1CN(c2ccc(F)cc2C(F)(F)F)CCN1S(=O)(=O)c1ccc([C@@](O)(C(N)=O)C(F)(F)F)s1 [Number 45] | 11β- HSD1 > 2
CCCSc1ncccc1C(=O)NC1CCCCC1 [Number 46] | 11β- HSD1 > 2
O=C(N[C@H]1C2CC3CC1C[C@@](O)(C3)C2)c1cnc(N2CCOCC2)nc1C1CC1 [Number 48] | 11β- HSD1 > 2
O=C(N[C@H]1C2CC3CC1C[C@@](O)(C3)C2)c1cnc(N[C@H]2CCOC2)nc1C1CCCC1 [Number 49] | 11β- HSD1 > 2
CSc1nc(N2C[C@@H]3[C@H](C2)[C@H]3C(=O)O)ccc1C(=O)NC1C2CC3CC(C2)CC1C3 (stereo partly drawn) [Number 50] | 11β- HSD1 > 2
COc1ccc(N2C(=O)C(C)(C)C2c2ccccc2OC)cc1 (stereo not drawn) [Number 51] | 11β- HSD1 > 2
CC(C)(C)c1c(C(=O)NC2C3CC4CC(C3)CC2C4)cnn1-c1ccc(C(=O)O)cc1 (stereo not drawn) [Number 52] | 11β- HSD1 > 2
CC1(C)C(=O)N(c2cccc(S(C)(=O)=O)c2)C1c1cccc2nccnc12 (stereo not drawn) [Number 53] | 11β- HSD1 > 2
Nc1c(Cl)cc(C(=O)N(C2CCCC2)C2CC2)cc1Cl [Number 54] | 11β- HSD1 > 2
C[C@@H]1CC(n2c(=O)[nH]c3ccccc32)C[C@@H](C)N1C(=O)c1cc(Cl)c(N)c(Cl)c1 (stereo partly drawn) [Number 55] | 11β- HSD1 > 2
O=C1C(Cc2ccccc2)CCN1C1CCCCC1 (stereo not drawn) [Number 56] | 11β- HSD1 > 2
N#Cc1cccnc1N1CCN(CC(=O)NC2C3CC4CC(C3)CC2C4)CC1 (stereo not drawn) [Number 58] | 11β- HSD1 > 2
O=C(CN1CCN(c2ccc(C(F)(F)F)cn2)CC1)NC1C2CC3CC1CC(O)(C3)C2 (stereo not drawn) [Number 59] | 11β- HSD1 > 2
CC(C)(C(=O)NC1C2CC3CC1CC(C(N)=O)(C3)C2)N1CCN(c2ccc(C(F)(F)F)cn2)CC1 (stereo not drawn) [Number 60] | 11β- HSD1 > 2
CC(C)(Cc1ccc(Cl)cc1)C(=O)NC12CCC(C(N)=O)(CC1)CC2 [Number 61] | 11β- HSD1 > 2
CC(C)(Oc1ccc(-n2cccn2)cn1)C(=O)N[C@H]1C2CC3CC1C[C@@](C(N)=O)(C3)C2 [Number 63] | 11β- HSD1 > 2

Structure (SMILES) | Specificity
CC1CCN(C(=O)c2cccc(CSc3c(Cl)cccc3Cl)n2)CC1 [Number 68] | 11β- HSD1 > 2
N#Cc1c(O)nc(SCc2ccccc2Cl)nc1-c1ccccc1 [Number 69] | 11β- HSD1 > 2
Cc1ccc(-c2cccc(C(=O)N3CCCC(C)(C)C3)n2)cc1F [Number 71] | 11β- HSD1 > 2
Cc1c(Cl)cccc1Oc1cccn2c(C34CCC(O)(CC3)CC4)nnc12 [Number 72] | 11β- HSD1 > 2
O=C(O)CC1C2CC3CC(C2)CC1C3 (stereo not drawn) [Number 73] | 11β- HSD1 > 2
O=C(O)CC1(c2ccc(F)cc2)C2CCCC1CCC2 (stereo not drawn) [Number 74] | 11β- HSD1 > 2
O[C@]12CC[C@](c3nnc4c(Oc5ccccc5Cl)cccn43)(CC1)C2 [Number 75] | 11β- HSD1 > 2
O=C(NC1C2CC3CC(C2)CC1C3)N1CCCCC1 (stereo not drawn) [Number 76] | 11β- HSD1 > 2
O=C(O)C[C@H]1CC2(CCN(C(=O)NC3C4CC5CC(C4)CC3C5)CC2)c2c(Br)cccc21 (stereo partly drawn) [Number 77] | 11β- HSD1 > 2
O=C(OC1C2CC3CC(C2)CC1C3)N1CCCCC1 (stereo not drawn) [Number 78] | 11β- HSD1 > 2
N#Cc1cccnc1N[C@@H]1CCN(C(=O)O[C@H]2C3CC4CC2C[C@@](C(N)=O)(C4)C3)C1 [Number 79] | 11β- HSD1 > 2
Cc1c(Cl)cccc1S(=O)(=O)NCc1ccc(C(=O)N2C[C@@H](C)O[C@@H](C)C2)cc1 [Number 82] | 11β- HSD1 > 2
CCCN(C(=O)c1ccc(CNS(=O)(=O)c2cccc(Cl)c2)cc1)C1CCCCCC1 [Number 83] | 11β- HSD1 > 2
CCN(CC)C(=O)C1CCCN(S(=O)(=O)c2cccc(Cl)c2C)C1 (stereo not drawn) [Number 84] | 11β- HSD1 > 2
CN(C(=O)c1csc(CNS(=O)(=O)c2cccc(Cl)c2)n1)C1CCCCCC1 [Number 85] | 11β- HSD1 > 2
CN(C(=O)N1CCC(CN2C(=O)Nc3ccc(Cl)cc3S2(=O)=O)CC1)C1CCCCCC1 [Number 86] | 11β- HSD1 > 2
Cc1c(Cl)cccc1S(=O)(=O)N1CCC[C@@H](C(=O)N[C@H]2C[C@@H]3CC[C@@]2(C)C3(C)C)C1 [Number 87] | 11β- HSD1 > 2
C[C@]1(C(=O)N[C@H]2C3CC4CC2C[C@@](O)(C4)C3)CCCN1S(=O)(=O)c1cccc2cccnc12 [Number 90] | 11β- HSD1 > 2
O=C(CN1C(C(=O)c2ccccc2)=C(O)c2ccccc2S1(=O)=O)c1ccccc1 [Number 91] | 11β- HSD1 > 2

Same assay, conditions: cited from earlier work

Structure (SMILES) | Specificity
CC(C)[C@]1(C)SC(N[C@H]2C[C@@H]3CC[C@H]2C3)=NC1=O [Number 13] | 11β- HSD1 > 2
CC(C)[C@]1(C)SC(N[C@H]2C[C@H]3C[C@@H]2C[C@@H]3O)=NC1=O [Number 14] | 11β- HSD1 > 2
C[C@](O)(c1ccc(C(=O)N(C2CC2)C2CCN(CC3(C(N)=O)CC3)CC2)cc1)C(F)(F)F [Number 18] | 11β- HSD1 > 2
C[C@](O)(c1ccc(C(=O)N(C2CC2)C2CCC(CCC(N)=O)(c3ccccc3)CC2)cc1)C(F)(F)F (stereo partly drawn) [Number 19] | 11β- HSD1 > 2
CO[C@@H]1C[C@H]2CC[C@@H](C1)N2S(=O)(=O)c1ccc(C(C)(C)C)cc1 [Number 32] | 11β- HSD1 > 2
C[C@@H]1CN(c2ccc(F)cc2C(F)(F)F)CCN1S(=O)(=O)c1ccc(C(N)=O)cc1Cl [Number 44] | 11β- HSD1 > 2
CCCSc1nc(N2CCC[C@@H](CC(=O)O)C2)ccc1C(=O)NC1CCCCC1 [Number 47] | 11β- HSD1 > 2
CC(C(=O)NC1C2CC3CC1CC(O)(C3)C2)N1CCN(c2ccc(C(F)(F)F)cn2)CC1 (stereo not drawn) [Number 66] | 11β- HSD1 > 2
CC1CCN(C(=O)c2ccc(CSc3ccc(Cl)cc3)cc2)CC1 [Number 67] | 11β- HSD1 > 2
N#Cc1ncccc1CSc1nc(O)c(C#N)c2c1COCC2 [Number 70] | 11β- HSD1 > 2
Cc1cccc(N2CCC(C)(c3ccccc3)OC2=O)c1 (stereo not drawn) [Number 80] | 11β- HSD1 > 2
C[C@@H](c1ccc(-c2ccc(F)cc2F)cc1)N1CC[C@](CCO)(c2ccc(F)cc2)OC1=O [Number 81] | 11β- HSD1 > 2
Cc1c(Cl)cccc1S(=O)(=O)N1CCCC[C@@H]1C(=O)N[C@H]1C2CC3CC1C[C@](O)(C3)C2 [Number 88] | 11β- HSD1 > 2
Cc1c(Cl)cccc1S(=O)(=O)N1CCCC[C@@H]1C(=O)N[C@H]1C2CC3CC1C[C@](O)(C3)C2 [Number 89] | 11β- HSD1 > 2
